The text below walks through data of publication PMC7933930, “Development of a small molecule that corrects misfolding and increases secretion of Z α1‐antitrypsin” (EMBO Molecular Medicine, 2021).

In one data set the test system is Cell Health. In words: Off‐target panel: Cell Health. In kind it is cell-based. The method, then: (§1) GSK716 selectivity and PK properties were profiled in order to investigate the suitability of GSK716 for progression into in vivo studies and the potential for taking it forward as a clinical candidate for testing in humans. Since GSK716 results in loss of inhibitory activity of α1‐antitrypsin, the effect of the compound was assessed on other closely related serpins. […] Furthermore, there were no off‐target effects in a panel of assays considered predictive of known safety liabilities that precluded further development of GSK716 (Table EV1).

The next data set deals with GABA-A. In words: Off‐target panel: GABA-A (Barracuda). Type of data set: cell-based. How it is done: as §1
A further data set deals with Dopamine D2 (DRD2S) (Homo sapiens, UniProt P14416). Briefly: Off‐target panel: Dopamine D2 (DRD2S) (DRX). In kind it is cell-based. How it is done:
as §1

The next data set deals with Serotonin 5HT2B (Homo sapiens, UniProt P41595). In words: Off‐target panel: Serotonin 5HT2B (DRX). Type of data set: cell-based. How it is done:
as §1

For another data set, the target named is MRGPRX2 (Homo sapiens, UniProt Q96LB1). Briefly: Off‐target panel: MRGPRX2 Agonist (DRX). Type of data set: cell-based. The settings on record: read-out: Mean (PXC50). The method, then:
as §1

For the next data set, the target named is human serum albumin (Homo sapiens, UniProt P02768). In kind it is in vitro ADME.
In another data set the target is Dopamine D2 (Homo sapiens, UniProt P14416). Briefly: Off‐target panel: Dopamine D2. In kind it is cell-based. How it is done: as §1
For another data set, the target named is α1‐antichymotrypsin (Homo sapiens, UniProt P01011). In words: Inhibitory activity of α1‐antichymotrypsin against chymotrypsin. Type of data set: biochemical. How it is done:
Figure 5 The effect of GSK716 on serpin inhibitory activity • α1‐Antitrypsin was incubated at varying molar ratios with the model protease bovine α‐chymotrypsin, and the residual protease activity determined. The intercept of the regression with the abscissa reflects the number of molecules of α1‐antitrypsin required to inhibit one molecule of chymotrypsin in the presence (+c) and absence (−c) of 50µM GSK716. Error bars reflect ± SEM of three independent experiments. • M α1‐antitrypsin was incubated with different molar ratios of chymotrypsin and resolved by SDS–PAGE. The position of covalent α1‐antitrypsin‐chymotrypsin complex (cpx), native (nat) and cleaved (clv) is shown. • The inhibitory activity of α1‐antichymotrypsin against chymotrypsin (ach + chym), neuroserpin against trypsin (neus + tryp), and antithrombin against thrombin (atiii + thrombin) was determined in the presence and absence of GSK716. Error bars reflect ± SD of two independent experiments.
GSK716 selectivity and PK properties were profiled in order to investigate the suitability of GSK716 for progression into in vivo studies and the potential for taking it forward as a clinical candidate for testing in humans. Since GSK716 results in loss of inhibitory activity of α1‐antitrypsin, the effect of the compound was assessed on other closely related serpins. […]

Another data set has as its target Acetyl- cholinesterase (Homo sapiens, UniProt P22303). In words: Off‐target panel: Acetyl- cholinesterase. Type of data set: biochemical. The method, then: as §1
The target in the next data set is Histamine H1 (Homo sapiens, UniProt P35367). Briefly: Off‐target panel: Histamine H1 (DRX). The note with it: Antagonist, read-out: Mean (PXC50) (converted). In kind it is cell-based. The method, then: as §1
The target of another data set is T1, CYP3A4 (Homo sapiens, UniProt P08684).
T1 construct: pre‐incubated at 37°C with human liver microsomes (0.1 mg/ml); from tissue; host or cells: human liver microsomes
In words: CYP3A4 TDI fold IC50 shift (human liver microsomes, midazolam). The settings on record: probe midazolam (12.5 µM), read-out: time‐dependent inhibition of CYP3A4, fold shift in IC50. In kind it is in vitro ADME. How it is done:
Seven concentrations of GSK716 (2, 4, 10, 20, 40, 100 and 200 µM) plus a vehicle control (0.25% v/v DMSO in pre‐incubation) were pre‐incubated at 37°C with human liver microsomes (0.1 mg/ml) and NADPH (1 mM) for a range of five pre‐incubation times (5, 10, 15, 20 and 30 min) with a 0 min pre‐incubation, in duplicate. At the end of the individual pre‐incubations, an aliquot of the pre‐incubation mixture was added to an incubation mixture in a 1:20 dilution for GSK716 with the specific CYP3A4 probe substrate, midazolam (12.5 µM, equivalent to 5xKm44) and NADPH (1 mM) for a 5 min. The reactions were terminated by transferring an aliquot of incubation mixture to methanol. The samples were mixed and then centrifuged at 2,500 rpm for 30 min at 4°C. Aliquots of the supernatant were diluted with formic acid (final concentration 0.1 % v/v) in deionised water containing internal standard (metoprolol; final concentration 0.03 mg/l). Samples were analysed by LC‐MS/MS.

A further data set deals with T2, M α1‐antitrypsin (Homo sapiens, UniProt P01009).
T2 construct: purified from the plasma of M (wild‐type) and Z α1‐antitrypsin homozygotes; from tissue; host or cells: human plasma of M (wild-type) homozygotes
In words: Association kinetics by intrinsic tryptophan fluorescence (stopped flow), M α1‐antitrypsin. Type of data set: binding. The source says: The shape of the curves and native mass spectrometry (not shown) are consistent with a single high‐affinity compound binding site. No binding of the fluorescent derivative to polymers of Z α1‐antitrypsin was observed, indicating conformational selectivity for the monomeric protein (Fig 1D). The rate of interaction of the compound with the target was monitored through changes in intrinsic tryptophan fluorescence (Dafforn et al, 1999); this property was used to determine the second‐order association rate constants for GSK716 binding to Z (4.1 × 10^4 M^−1 s^−1) and M α1‐antitrypsin (2.1 × 10^2 M^−1 s^−1; Fig 1E and F). […] Therefore, the selectivity of the compound for Z over M α1‐antitrypsin is dominated by the difference in the rate of association rather than dissociation.
Kinetic parameters of GSK716 binding to M, Z, S (Glu264Val) and Baghdad (Ala336Pro) (Haq et al, 2016) α1‐antitrypsin were measured by detecting intrinsic tryptophan fluorescence of the protein (excitation at 280 nm and detection of emission at 320 nm) on a stopped flow apparatus (Applied Photophysics) (Kim & Yu, 1996; Dafforn et al, 1999). […]

In data set [1] the target is Aryl hydrocarbon receptor (Homo sapiens, UniProt P35869). Briefly: Off‐target panel: Aryl hydrocarbon receptor. Type of data set: cell-based. The settings on record: Activator, read-out: Mean (PXC50). The method, then:
as §1

Chain of Dopamine D2 (P14416 whole entry): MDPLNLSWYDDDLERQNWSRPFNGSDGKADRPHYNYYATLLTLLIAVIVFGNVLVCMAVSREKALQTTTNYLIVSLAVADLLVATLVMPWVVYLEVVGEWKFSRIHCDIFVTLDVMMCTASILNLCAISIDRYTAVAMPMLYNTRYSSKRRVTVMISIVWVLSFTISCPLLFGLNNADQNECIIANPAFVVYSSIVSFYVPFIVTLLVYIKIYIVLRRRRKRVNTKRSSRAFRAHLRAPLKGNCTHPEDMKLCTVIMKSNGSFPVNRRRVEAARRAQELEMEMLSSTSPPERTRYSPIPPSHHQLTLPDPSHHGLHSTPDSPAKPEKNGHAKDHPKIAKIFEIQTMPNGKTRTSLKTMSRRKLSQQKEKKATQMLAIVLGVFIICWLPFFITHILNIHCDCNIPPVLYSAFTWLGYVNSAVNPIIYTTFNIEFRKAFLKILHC
T2 sequence (P01009 25-418): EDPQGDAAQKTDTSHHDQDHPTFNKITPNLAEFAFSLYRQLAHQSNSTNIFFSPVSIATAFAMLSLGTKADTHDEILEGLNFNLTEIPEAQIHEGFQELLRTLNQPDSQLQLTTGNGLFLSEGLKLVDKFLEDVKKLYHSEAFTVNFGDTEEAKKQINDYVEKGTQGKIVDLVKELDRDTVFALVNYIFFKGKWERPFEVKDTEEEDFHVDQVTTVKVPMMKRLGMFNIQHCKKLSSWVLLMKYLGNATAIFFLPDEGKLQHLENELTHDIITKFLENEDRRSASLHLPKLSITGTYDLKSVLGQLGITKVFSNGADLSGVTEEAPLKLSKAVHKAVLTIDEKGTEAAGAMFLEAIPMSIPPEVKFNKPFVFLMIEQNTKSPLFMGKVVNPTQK
Chain of Dopamine D2 (DRD2S) (P14416 1-414 isoform P14416-2): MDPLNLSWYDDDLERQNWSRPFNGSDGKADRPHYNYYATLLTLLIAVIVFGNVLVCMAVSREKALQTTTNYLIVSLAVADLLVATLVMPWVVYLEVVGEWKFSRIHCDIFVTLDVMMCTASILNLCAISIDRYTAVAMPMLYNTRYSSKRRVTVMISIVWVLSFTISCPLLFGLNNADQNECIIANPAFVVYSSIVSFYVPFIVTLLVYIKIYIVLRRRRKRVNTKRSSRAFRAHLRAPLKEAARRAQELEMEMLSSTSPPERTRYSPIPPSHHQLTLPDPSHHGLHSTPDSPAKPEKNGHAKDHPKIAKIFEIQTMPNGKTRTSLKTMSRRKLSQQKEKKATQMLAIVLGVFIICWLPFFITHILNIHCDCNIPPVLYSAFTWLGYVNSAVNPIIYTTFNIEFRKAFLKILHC
Chain of Acetyl- cholinesterase (P22303 32-614, species assumed): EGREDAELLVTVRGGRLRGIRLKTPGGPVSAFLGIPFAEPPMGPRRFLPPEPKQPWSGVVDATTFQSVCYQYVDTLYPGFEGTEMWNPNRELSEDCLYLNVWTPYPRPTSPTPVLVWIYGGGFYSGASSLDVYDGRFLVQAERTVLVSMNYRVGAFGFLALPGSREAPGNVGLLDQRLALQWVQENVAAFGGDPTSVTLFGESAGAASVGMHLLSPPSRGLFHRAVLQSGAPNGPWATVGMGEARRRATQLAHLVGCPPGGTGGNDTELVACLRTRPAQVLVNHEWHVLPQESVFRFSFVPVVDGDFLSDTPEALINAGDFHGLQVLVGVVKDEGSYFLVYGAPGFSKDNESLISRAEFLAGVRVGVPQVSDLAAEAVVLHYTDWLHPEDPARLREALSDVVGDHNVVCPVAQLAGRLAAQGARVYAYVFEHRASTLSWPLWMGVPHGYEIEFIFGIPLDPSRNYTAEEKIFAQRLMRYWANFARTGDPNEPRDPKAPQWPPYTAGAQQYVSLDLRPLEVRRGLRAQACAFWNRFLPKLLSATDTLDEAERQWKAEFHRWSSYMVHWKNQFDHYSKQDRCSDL
Chain of Serotonin 5HT2B (P41595 whole entry): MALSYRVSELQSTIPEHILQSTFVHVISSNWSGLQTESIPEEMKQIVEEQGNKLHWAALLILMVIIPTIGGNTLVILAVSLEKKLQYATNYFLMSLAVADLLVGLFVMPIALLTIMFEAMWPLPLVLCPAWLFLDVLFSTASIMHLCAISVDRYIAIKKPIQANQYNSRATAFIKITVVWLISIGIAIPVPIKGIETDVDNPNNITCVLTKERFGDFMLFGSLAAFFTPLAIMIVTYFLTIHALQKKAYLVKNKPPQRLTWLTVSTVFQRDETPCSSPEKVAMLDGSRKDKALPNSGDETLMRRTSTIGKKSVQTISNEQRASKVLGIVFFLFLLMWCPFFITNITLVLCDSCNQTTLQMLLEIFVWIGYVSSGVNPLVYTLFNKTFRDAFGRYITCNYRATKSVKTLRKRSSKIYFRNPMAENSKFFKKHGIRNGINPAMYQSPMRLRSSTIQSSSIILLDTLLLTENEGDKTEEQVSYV
T1 sequence (P08684 whole entry): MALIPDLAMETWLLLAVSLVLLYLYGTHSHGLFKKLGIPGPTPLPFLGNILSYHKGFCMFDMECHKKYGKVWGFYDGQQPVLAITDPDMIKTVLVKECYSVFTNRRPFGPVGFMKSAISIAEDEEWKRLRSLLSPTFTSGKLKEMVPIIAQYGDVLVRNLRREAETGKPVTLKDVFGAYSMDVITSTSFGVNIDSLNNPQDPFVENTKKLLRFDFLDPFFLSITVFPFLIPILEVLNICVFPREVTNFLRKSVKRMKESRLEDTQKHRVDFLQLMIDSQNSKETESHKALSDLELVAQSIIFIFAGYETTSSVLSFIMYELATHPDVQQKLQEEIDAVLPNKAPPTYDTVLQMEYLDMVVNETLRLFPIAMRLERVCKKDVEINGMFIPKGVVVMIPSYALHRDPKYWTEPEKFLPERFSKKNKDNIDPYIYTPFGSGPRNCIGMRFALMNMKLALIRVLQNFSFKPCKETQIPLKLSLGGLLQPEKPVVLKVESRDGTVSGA
Chain of human serum albumin (P02768 25-609): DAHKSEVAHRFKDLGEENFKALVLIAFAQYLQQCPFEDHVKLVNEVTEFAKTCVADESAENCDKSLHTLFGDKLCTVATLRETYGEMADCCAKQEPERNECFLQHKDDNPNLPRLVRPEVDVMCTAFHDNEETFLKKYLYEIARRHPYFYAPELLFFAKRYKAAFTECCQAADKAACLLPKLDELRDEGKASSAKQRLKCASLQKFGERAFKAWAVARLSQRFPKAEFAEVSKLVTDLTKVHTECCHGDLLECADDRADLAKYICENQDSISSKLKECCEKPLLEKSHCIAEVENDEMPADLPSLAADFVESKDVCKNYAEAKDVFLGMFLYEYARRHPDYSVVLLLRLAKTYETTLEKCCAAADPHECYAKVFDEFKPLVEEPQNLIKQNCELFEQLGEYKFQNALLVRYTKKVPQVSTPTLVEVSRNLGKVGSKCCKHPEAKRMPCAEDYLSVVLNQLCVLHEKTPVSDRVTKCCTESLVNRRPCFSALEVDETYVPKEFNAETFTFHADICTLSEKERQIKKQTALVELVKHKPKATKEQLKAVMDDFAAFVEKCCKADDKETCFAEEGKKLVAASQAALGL
Chain of Aryl hydrocarbon receptor (P35869 11-848, species assumed): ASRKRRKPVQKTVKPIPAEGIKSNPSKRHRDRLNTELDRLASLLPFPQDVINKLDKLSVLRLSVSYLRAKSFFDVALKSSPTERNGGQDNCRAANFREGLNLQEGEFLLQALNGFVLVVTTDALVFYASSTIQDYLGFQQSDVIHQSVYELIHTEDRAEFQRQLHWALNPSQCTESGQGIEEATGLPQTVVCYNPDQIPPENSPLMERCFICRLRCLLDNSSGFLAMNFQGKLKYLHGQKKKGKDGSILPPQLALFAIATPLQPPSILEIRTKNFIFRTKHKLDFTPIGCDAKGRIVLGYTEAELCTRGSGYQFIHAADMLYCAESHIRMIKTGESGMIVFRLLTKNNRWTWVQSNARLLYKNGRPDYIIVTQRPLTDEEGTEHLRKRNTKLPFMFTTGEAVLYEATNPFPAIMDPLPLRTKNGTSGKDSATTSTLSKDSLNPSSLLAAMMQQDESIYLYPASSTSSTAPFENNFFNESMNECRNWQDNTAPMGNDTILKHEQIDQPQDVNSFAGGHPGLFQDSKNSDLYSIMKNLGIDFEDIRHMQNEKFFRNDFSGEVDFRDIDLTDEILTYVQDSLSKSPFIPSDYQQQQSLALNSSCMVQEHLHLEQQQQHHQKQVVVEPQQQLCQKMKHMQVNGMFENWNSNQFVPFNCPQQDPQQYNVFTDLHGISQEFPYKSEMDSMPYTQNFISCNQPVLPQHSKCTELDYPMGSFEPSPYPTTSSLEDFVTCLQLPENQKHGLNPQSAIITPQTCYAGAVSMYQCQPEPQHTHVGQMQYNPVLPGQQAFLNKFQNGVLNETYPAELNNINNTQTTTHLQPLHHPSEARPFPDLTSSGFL
Chain of MRGPRX2 (Q96LB1 whole entry, species assumed): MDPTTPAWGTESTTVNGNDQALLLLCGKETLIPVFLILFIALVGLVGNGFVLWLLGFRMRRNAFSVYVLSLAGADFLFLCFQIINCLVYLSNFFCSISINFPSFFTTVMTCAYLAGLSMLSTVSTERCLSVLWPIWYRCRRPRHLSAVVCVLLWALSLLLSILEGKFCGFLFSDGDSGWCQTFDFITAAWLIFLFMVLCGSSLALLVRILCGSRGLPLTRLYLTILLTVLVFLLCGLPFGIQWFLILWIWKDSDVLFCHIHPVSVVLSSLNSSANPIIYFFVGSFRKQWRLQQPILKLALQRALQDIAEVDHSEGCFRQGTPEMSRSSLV
Chain of α1‐antichymotrypsin (P01011 24-423, species assumed): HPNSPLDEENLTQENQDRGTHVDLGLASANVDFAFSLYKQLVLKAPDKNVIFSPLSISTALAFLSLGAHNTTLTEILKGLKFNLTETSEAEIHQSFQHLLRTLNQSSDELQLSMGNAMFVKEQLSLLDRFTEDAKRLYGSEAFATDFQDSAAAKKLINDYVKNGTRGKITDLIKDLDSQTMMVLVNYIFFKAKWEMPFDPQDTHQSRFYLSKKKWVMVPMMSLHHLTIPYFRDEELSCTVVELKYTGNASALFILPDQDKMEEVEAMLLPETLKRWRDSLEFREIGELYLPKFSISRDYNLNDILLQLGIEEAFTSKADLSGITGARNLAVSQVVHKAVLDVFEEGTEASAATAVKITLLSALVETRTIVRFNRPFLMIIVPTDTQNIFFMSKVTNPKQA

In the case of `CCC[C@@H](NC(=O)c1cccc2c1CC(=O)N2)[C@@H](O)c1cccc(F)c1C` [GSK716], the “Mean (PXC50)” value in the data set with Cell Health (Membrane Permeability) is under 3.7; in the data set on Cell Health (Mitochondrial Potential), 3.8; in the data set with Cell Health (Nucleus (size)), under 3.7; in the data set on GABA-A (Agonist) it was under 4; in the data set on GABA-A (Antagonist) it was under 4; with GABA-A (Pos Mod), under 4. Besides, the EC50 at Dopamine D2 (DRD2S) was over 100 µM; at Serotonin 5HT2B it was 39.8 µM; at MRGPRX2, over 100 µM; on Dopamine D2 it was over 100 µM; in data set [1], over 100 µM. For the same compound, the IC50 is over 100 µM on Dopamine D2 (DRD2S), over 100 µM against Dopamine D2, 100 µM on Acetyl- cholinesterase and 10 µM at Histamine H1. The “binding to human serum albumin” value on human serum albumin worked out at 84.2%. Moreover, the “inhibitory activity of α1‐antichymotrypsin towards its cognate protease” value at α1‐antichymotrypsin was “did not affect”. On CYP3A4, the IC50 shift came out at 1.59. For the same compound, the koff at M α1‐antitrypsin (calculated from association rate constant and affinity, read-out: first‐order dissociation rate constant) is 1.6e-05 s⁻¹. Further, the kon at M α1‐antitrypsin (read-out: second‐order association rate constant) came out at 210 M⁻¹ s⁻¹.
